# Assay results reported in US8299111B2, “Compounds which modulate the CB2 receptor” (Boehringer Ingelheim International GmbH, priority 2006, dated 2012).
# Molecular target: T1, human CB2R (Homo sapiens, UniProt P34972)
# T1 construct: host or cells: CHO cells
# Test: CB2R mediated modulation of cAMP synthesis
# Type: cell-based
# Details: found through the use of the above described assays (binding and cAMP); CHO cells expressing human CB2R, forskolin-stimulated cAMP
# Experimental: B. CB2R Mediated Modulation of cAMP Synthesis:
# CHO cells expressing human CB2R (Euroscreen) were plated at a density of 5000 cells per well in 384 well plates and incubated overnight at 37° C. After removing the media, the cells were treated with test compounds diluted in stimulation buffer containing 1 mM IBMX, 0.25% BSA and 10 uM Forskolin. The assay was incubated for 30 minutes at 37° C. Cells were lysed and the cAMP concentration was measured using DiscoverX -XS cAMP kit, following the manufacturer's protocol. In this setting, agonists will decrease forskolin induced production of cAMP while inverse agonists will further increase forskolin induced production of cAMP. EC50 of agonists were calculated as follows. The maximal amount of cAMP produced by forskolin compared to the level of cAMP inhibited by 1 uM CP55940 is defined as 100%. The EC50 value of each test compound was determined as the concentration at which 50% of the forskolin-stimulated cAMP synthesis was inhibited. Data was analyzed using a four-parameter logistic model. (Model 205 of XLfit 4.0).
# T1 sequence (P34972 whole entry): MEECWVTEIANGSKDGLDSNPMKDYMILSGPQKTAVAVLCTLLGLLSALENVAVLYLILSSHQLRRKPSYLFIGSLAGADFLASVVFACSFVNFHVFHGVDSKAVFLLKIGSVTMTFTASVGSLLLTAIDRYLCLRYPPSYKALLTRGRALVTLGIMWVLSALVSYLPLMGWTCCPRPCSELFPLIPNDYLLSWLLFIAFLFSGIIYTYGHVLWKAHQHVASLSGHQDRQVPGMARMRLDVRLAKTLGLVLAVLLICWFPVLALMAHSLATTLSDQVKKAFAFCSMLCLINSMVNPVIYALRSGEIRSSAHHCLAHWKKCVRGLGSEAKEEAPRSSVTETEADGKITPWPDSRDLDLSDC
row,Compound,agonistic activity
1,CC(C)(C)Cc1cc(NC(=O)C(C)(C)S(=O)(=O)c2ccc(Cl)cc2)on1,agonistic activity
2,CC(C)(C)c1cc(NC(=O)C(C)(C)S(=O)(=O)c2ccc[n+]([O-])c2)no1,agonistic activity
3,Cc1nc(NC(=O)C2(S(=O)(=O)c3ccc(Cl)cc3)CCC2)sc1C(C)(C)C [1-(4-Chloro-benzenesulfonyl)-cyclobutanecarboxylic acid (5-tert-butyl-4-methyl-thiazol-2-yl)-amide],agonistic activity
4,CC(C)(C)c1cc(NC(=O)C2(S(=O)(=O)c3ccc(Cl)cc3)CCC2)no1 [1-(4-Chloro-benzenesulfonyl)-cyclobutanecarboxylic acid (5-tert-butyl-isoxazol-3-yl)-amide],agonistic activity
5,CC(C)(C)c1cnc(NC(=O)C2(S(=O)(=O)c3ccc(Cl)cc3)CCC2)s1 [1-(4-Chloro-benzenesulfonyl)-cyclobutanecarboxylic acid (5-tert-butyl-thiazol-2-yl)-amide],agonistic activity
6,Cn1nc(-c2ccccc2)cc1NC(=O)C1(S(=O)(=O)c2ccc(Cl)cc2)CC1 [1-(4-Chloro-benzenesulfonyl)-cyclopropanecarboxylic acid (2-methyl-5-phenyl-2H-pyrazol-3-yl)-amide],agonistic activity
7,CC(C)(C)c1csc(NC(=O)C2(S(=O)(=O)c3ccc(Cl)cc3)CC2)n1 [1-(4-Chloro-benzenesulfonyl)-cyclopropanecarboxylic acid (4-tert-butyl-thiazol-2-yl)-amide],agonistic activity
8,O=C(Nc1cc(C(F)(F)F)ccn1)C1(S(=O)(=O)c2ccc(Cl)cc2)CC1 [1-(4-Chloro-benzenesulfonyl)-cyclopropanecarboxylic acid (4-trifluoromethyl-pyridin-2-yl)-amide],agonistic activity
9,Cn1nc(C(C)(C)C)cc1NC(=O)C1(S(=O)(=O)c2ccc(Cl)cc2)CC1 [1-(4-Chloro-benzenesulfonyl)-cyclopropanecarboxylic acid (5-tert-butyl-2-methyl-2H-pyrazol-3-yl)-amide],agonistic activity
10,CC(C)(C)c1cc(NC(=O)C2(S(=O)(=O)c3ccc(Cl)cc3)CC2)[nH]n1 [1-(4-Chloro-benzenesulfonyl)-cyclopropanecarboxylic acid (5-tert-butyl-2H-pyrazol-3-yl)-amide],agonistic activity
11,Cc1nc(NC(=O)C2(S(=O)(=O)c3ccc(Cl)cc3)CC2)sc1C(C)(C)C [1-(4-Chloro-benzenesulfonyl)-cyclopropanecarboxylic acid (5-tert-butyl-4-methyl-thiazol-2-yl)-amide],agonistic activity
12,CC(C)(C)c1cc(NC(=O)C2(S(=O)(=O)c3ccc(Cl)cc3)CC2)no1 [1-(4-Chloro-benzenesulfonyl)-cyclopropanecarboxylic acid (5-tert-butyl-isoxazol-3-yl)-amide],agonistic activity
13,O=C(Nc1ccc(C(F)(F)F)cn1)C1(S(=O)(=O)c2ccc(Cl)cc2)CC1 [1-(4-Chloro-benzenesulfonyl)-cyclopropanecarboxylic acid (5-trifluoromethyl-pyridin-2-yl)-amide],agonistic activity
14,Cc1nc(NC(=O)C2(S(=O)(=O)c3ccc(C(F)(F)F)cc3)CCC2)sc1C(C)(C)C [1-(4-Trifluoromethyl-benzenesulfonyl)-cyclobutanecarboxylic acid (5-tert-butyl-4-methyl-thiazol-2-yl)-amide],agonistic activity
15,CC(C)(C)c1cc(NC(=O)C2(S(=O)(=O)c3ccc(C(F)(F)F)cc3)CCC2)no1 [1-(4-Trifluoromethyl-benzenesulfonyl)-cyclobutanecarboxylic acid (5-tert-butyl-isoxazol-3-yl)-amide],agonistic activity
16,CC(C)(C)c1cnc(NC(=O)C2(S(=O)(=O)c3ccc(C(F)(F)F)cc3)CCC2)s1 [1-(4-Trifluoromethyl-benzenesulfonyl)-cyclobutanecarboxylic acid (5-tert-butyl-thiazol-2-yl)-amide],agonistic activity
17,CC(C)(C)c1csc(NC(=O)C2(S(=O)(=O)c3ccc(C(F)(F)F)cc3)CC2)n1 [1-(4-Trifluoromethyl-benzenesulfonyl)-cyclopropanecarboxylic acid (4-tert-butyl-thiazol-2-yl)-amide],agonistic activity
18,O=C(Nc1cc(C(F)(F)F)ccn1)C1(S(=O)(=O)c2ccc(C(F)(F)F)cc2)CC1 [1-(4-Trifluoromethyl-benzenesulfonyl)-cyclopropanecarboxylic acid (4-trifluoromethyl-pyridin-2-yl)-amide],agonistic activity

row,Compound,agonistic activity
1,Cn1nc(C(C)(C)C)cc1NC(=O)C1(S(=O)(=O)c2ccc(C(F)(F)F)cc2)CC1 [1-(4-Trifluoromethyl-benzenesulfonyl)-cyclopropanecarboxylic acid (5-tert-butyl-2-methyl-2H-pyrazol-3-yl)-amide],agonistic activity
2,Cc1nc(NC(=O)C2(S(=O)(=O)c3ccc(C(F)(F)F)cc3)CC2)sc1C(C)(C)C [1-(4-Trifluoromethyl-benzenesulfonyl)-cyclopropanecarboxylic acid (5-tert-butyl-4-methyl-thiazol-2-yl)-amide],agonistic activity
3,CC(C)(C)c1cc(NC(=O)C2(S(=O)(=O)c3ccc(C(F)(F)F)cc3)CC2)no1 [1-(4-Trifluoromethyl-benzenesulfonyl)-cyclopropanecarboxylic acid (5-tert-butyl-isoxazol-3-yl)-amide],agonistic activity
4,O=C(Nc1ccc(C(F)(F)F)cn1)C1(S(=O)(=O)c2ccc(C(F)(F)F)cc2)CC1 [1-(4-Trifluoromethyl-benzenesulfonyl)-cyclopropanecarboxylic acid (5-trifluoromethyl-pyridin-2-yl)-amide],agonistic activity
5,O=C(Nc1cccc(C(F)(F)F)n1)C1(S(=O)(=O)c2ccc(C(F)(F)F)cc2)CC1 [1-(4-Trifluoromethyl-benzenesulfonyl)-cyclopropanecarboxylic acid (6-trifluoromethyl-pyridin-2-yl)-amide],agonistic activity
6,"Cn1nc(-c2ccccc2)cc1NC(=O)C(C)(C)S(=O)(=O)c1ccc(F)cc1F [2-(2,4-Difluoro-benzenesulfonyl)-2-methyl-N-(2-methyl-5-phenyl-2H-pyrazol-3-yl)-propionamide]",agonistic activity
7,"CC(C)(C(=O)Nc1nc(-c2ccccn2)cs1)S(=O)(=O)c1ccc(F)cc1F [2-(2,4-Difluoro-benzenesulfonyl)-2-methyl-N-(4-pyridin-2-yl-thiazol-2-yl)-propionamide]",agonistic activity
8,"CC(C)(C(=O)Nc1nc(-c2cccnc2)cs1)S(=O)(=O)c1ccc(F)cc1F [2-(2,4-Difluoro-benzenesulfonyl)-2-methyl-N-(4-pyridin-3-yl-thiazol-2-yl)-propionamide]",agonistic activity
9,"CC(C)(C(=O)Nc1cccc2ccccc12)S(=O)(=O)c1ccc(F)cc1F [2-(2,4-Difluoro-benzenesulfonyl)-2-methyl-N-naphthalen-1-yl-propionamide]",agonistic activity
10,"CC(C)(C(=O)Nc1cnc2ccccc2c1)S(=O)(=O)c1ccc(F)cc1F [2-(2,4-Difluoro-benzenesulfonyl)-2-methyl-N-quinolin-3-yl-propionamide]",agonistic activity
11,"CC(C)(C(=O)Nc1cc2ccccc2cn1)S(=O)(=O)c1ccc(F)cc1F [2-(2,4-Difluoro-benzenesulfonyl)-N-isoquinolin-3-yl-2-methyl-propionamide]",agonistic activity
12,"CC(C)(C(=O)Nc1ccc(C(F)(F)F)cn1)S(=O)(=O)c1cc(F)ccc1F [2-(2,5-Difluoro-benzenesulfonyl)-2-methyl-N-(5-trifluoromethyl-pyridin-2-yl)-propionamide]",agonistic activity
13,"CC(C)(C(=O)Nc1cccc(C(F)(F)F)n1)S(=O)(=O)c1cc(F)ccc1F [2-(2,5-Difluoro-benzenesulfonyl)-2-methyl-N-(6-trifluoromethyl-pyridin-2-yl)-propionamide]",agonistic activity
14,Cc1ccc(S(=O)(=O)C(C)(C)C(=O)Nc2ccc(C(F)(F)F)cn2)c(F)c1 [2-(2-Fluoro-4-methyl-benzenesulfonyl)-2-methyl-N-(5-trifluoromethyl-pyridin-2-yl)-propionamide],agonistic activity
15,CC(C)(C(=O)Nc1ccc(C(F)(F)F)cn1)S(=O)(=O)c1ccccc1F [2-(2-Fluoro-benzenesulfonyl)-2-methyl-N-(5-trifluoromethyl-pyridin-2-yl)-propionamide],agonistic activity
16,COc1ccc(S(=O)(=O)C(C)(C)C(=O)Nc2ccc(C(F)(F)F)cn2)cc1F [2-(3-Fluoro-4-methoxy-benzenesulfonyl)-2-methyl-N-(5-trifluoromethyl-pyridin-2-yl)-propionamide],agonistic activity
17,COc1ccc(S(=O)(=O)C(C)(C)C(=O)Nc2cccc(C(F)(F)F)n2)cc1F [2-(3-Fluoro-4-methoxy-benzenesulfonyl)-2-methyl-N-(6-trifluoromethyl-pyridin-2-yl)-propionamide],agonistic activity
18,Cc1ccc(S(=O)(=O)C(C)(C)C(=O)Nc2ccc(C(F)(F)F)cn2)cc1F [2-(3-Fluoro-4-methyl-benzenesulfonyl)-2-methyl-N-(5-trifluoromethyl-pyridin-2-yl)-propionamide],agonistic activity
